In PubChem BioAssay (NCI):
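Where inhibition never reached the appropriate level, the endpoint shown equals the highest concentration tested. Otherwise, values were interpolated linearly from a five-concentration, 48-hour dose response in 96-well plates. The concentration for 50% growth inhibition is given as GI50. TGI marks complete inhibition of growth.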

How the values were obtained:
Assay in all cases: NCI anticancer screen, dose series, 48 h
EKVX NSCLC = tested on: EKVX NSCLC
SK-MEL-5 melanoma = tested on: SK-MEL-5 melanoma
NCI-H522 lung = tested on: NCI-H522 lung
SF-268 CNS = tested on: SF-268 CNS
MOLT-4 leukemia = tested on: MOLT-4 leukemia
HCT-15 colon = tested on: HCT-15 colon
MALME-3M melanoma = tested on: MALME-3M melanoma
SF-295 CNS = tested on: SF-295 CNS
HOP-92 NSCLC = tested on: HOP-92 NSCLC
PC-3 prostate = tested on: PC-3 prostate

SMILES | TGI (EKVX NSCLC) [µM] | TGI (SK-MEL-5 melanoma) [µM] | TGI (NCI-H522 lung) [µM] | TGI (SF-268 CNS) [µM] | TGI (MOLT-4 leukemia) [µM] | TGI (HCT-15 colon) [µM] | TGI (MALME-3M melanoma) [µM] | TGI (SF-295 CNS) [µM] | TGI (HOP-92 NSCLC) [µM] | GI50 (SK-MEL-5 melanoma) [µM] | GI50 (PC-3 prostate) [µM] | TGI (PC-3 prostate) [µM] | GI50 (NCI-H522 lung) [µM] | GI50 (SF-268 CNS) [µM] | GI50 (MOLT-4 leukemia) [µM] | GI50 (HCT-15 colon) [µM] | GI50 (MALME-3M melanoma) [µM] | GI50 (SF-295 CNS) [µM] | GI50 (HOP-92 NSCLC) [µM] | GI50 (EKVX NSCLC) [µM]
CN(C)C(=S)/N=c1\sn(C)/c(=N\C(=S)N(C)C)n1C | > 100 | > 100 | > 100 | > 100 | > 100 | > 100 | 75.7 | > 100 | > 100 | – | – | – | – | – | – | – | – | – | – | –
CCCCCCCCCCCCCCCC(=O)OCCOCCOCCOCc1ccccc1 | > 100 | > 100 | – | > 100 | – | – | > 100 | 98.4 | 69.4 | – | – | – | – | – | – | – | – | – | – | –
CCN1CCN(c2cc(C)c3cc(NC(=O)c4ccc(OC)c(OC)c4)ccc3n2)CC1 | – | > 42.3 | 16.9 | > 75.1 | 88.9 | > 100 | 31.3 | 38.5 | 85.5 | 1.17 | 7.3 | > 100 | 0.485 | 9.19 | 6.21 | 3.02 | 13.3 | 11.8 | 13.4 | –
C#CC1/C(=C\C(=O)OC)CCCC1O (centres undefined) | > 100 | > 100 | > 100 | > 100 | > 100 | > 100 | > 100 | > 100 | > 100 | – | – | – | – | – | – | – | – | – | – | –
COCC(OC)C(CC=C(C#N)C#N)OC (centres undefined) | > 100 | > 100 | > 100 | > 100 | > 100 | > 100 | > 100 | > 100 | > 100 | – | – | – | – | – | – | – | – | – | – | –
CC(C)C1=Cc2ccc3c(c2C(=O)C1=O)CCCC3(C)C | 28.6 | 24.9 | 3.39 | 20.2 | – | 4.42 | 10.5 | 31 | 9.79 | – | – | – | – | – | – | – | – | – | – | –
O=C1N=C2Sc3ccc4ccccc4c3N2C1=O | 47.9 | 58 | – | 52.3 | > 100 | 61.9 | 47.9 | 36.5 | 30.6 | – | – | – | – | – | – | – | – | – | – | –
N#CC(C(=O)/C(=N\NC(N)=O)C(C#N)c1ccc(Cl)cc1)c1ccc(Cl)cc1 (centres undefined) | > 100 | > 100 | > 100 | > 100 | > 100 | > 100 | > 100 | > 100 | > 100 | – | – | – | – | – | – | – | – | – | – | –
CCC(C)(C)c1ccc(OCCCCNC(=O)c2ccc3ccccc3c2O)c(C(C)(C)CC)c1 | 87.9 | 71.4 | 91.2 | > 100 | > 100 | 28.5 | > 100 | > 100 | – | – | – | 49.7 | – | – | – | – | – | – | – | –
COC1C(OC(=S)Nc2ccccc2)c2ccccc2N1C(C)=O (centres undefined) | > 100 | – | – | – | > 100 | > 100 | – | > 100 | 92.2 | – | – | – | – | – | – | – | – | – | – | –
COc1ccc(CCN(C)C2CCC(C#N)(c3ccc(OC)c(OC)c3)CC2)cc1OC (centres undefined) | > 100 | > 100 | – | > 100 | > 100 | > 100 | > 100 | > 100 | > 100 | – | – | – | – | – | – | – | – | – | – | –
C=CCCCCC1CCC2CCC(CCCCC=C)N12 (centres undefined) | – | 26.9 | 28.3 | 29.8 | 36.3 | 19.4 | 31.8 | 26.4 | 22.8 | – | – | – | – | – | – | – | – | – | – | –
COC(=O)/C(=N\NC(N)=S)C(C(=O)OC)C(=O)C(=O)Nc1ccc(C)cc1 (centres undefined) | > 100 | > 100 | > 100 | > 100 | > 100 | > 100 | > 100 | > 100 | – | – | – | – | – | – | – | – | – | – | – | –
CC(C)(C)c1cc(C(P(=O)(O)O)P(=O)(O)O)cc(C(C)(C)C)c1O | > 100 | > 100 | > 100 | > 100 | > 100 | > 100 | – | > 100 | > 100 | – | – | – | – | – | – | – | – | – | – | –
COc1ccc(OCC(=O)O)c2c1CCCC2=O | > 100 | > 100 | > 100 | > 100 | > 100 | > 100 | > 100 | > 100 | > 100 | – | – | – | – | – | – | – | – | – | – | –
O=C(OC1CCC(=C2SCCCS2)[C@H]1C1SCCCS1)c1ccccc1 (some centres undefined) | > 100 | – | – | – | > 100 | > 100 | > 100 | > 100 | > 100 | – | – | – | – | – | – | – | – | – | – | –
Cc1ccc2nc(/C(=C/c3ccc(/C=C(\NC(=O)c4ccccc4)c4nc5ccc(C)cc5[nH]4)c(C)c3)NC(=O)c3ccccc3)[nH]c2c1 | > 100 | 33.5 | 42.6 | > 100 | 26.7 | > 100 | 59.9 | – | 52 | – | – | – | – | – | – | – | – | – | – | –
CN(C)C1CCN(C(=O)c2ccc(NC(=O)Nc3ccc(-c4nc(N5CCOCC5)c5cccn5n4)cc3)cc2)CC1 | 3.46 | 0.662 | 19.1 | 13.9 | 2.52 | > 50.7 | – | 0.512 | 0.102 | 0.153 | 0.0397 | 2.1 | 0.0377 | 0.0453 | 0.0457 | 2.77 | – | 0.0719 | < 0.015 | 0.0702
O=[N+]([O-])c1ccc2occ3c2c1CCC3 | > 100 | > 100 | > 100 | > 100 | > 100 | > 100 | > 100 | > 100 | > 100 | – | – | – | – | – | – | – | – | – | – | –
COc1c(O)c2c(=O)cc3c4c5c(cc(=O)c6c(O)c(OC)c(CC(C)O)c(c(c1CC(C)O)c24)c65)OCO3 (centres undefined) | – | 2.94 | 4.38 | 5.97 | 4.44 | 4.13 | 1.27 | 6.09 | 5.47 | – | – | – | – | – | – | – | – | – | – | –
O=C(/C(=C/c1ccc(Cl)cc1)c1ccccc1)c1ccccc1 | 72.4 | – | 34.7 | 41.8 | 47 | 30.6 | 31.3 | 39.7 | 41.7 | – | – | – | – | – | – | – | – | – | – | –
COC(=O)/C(=C/c1ccc(OC)cc1)C(C(=O)O)=C1CCCC1 | > 100 | > 100 | > 100 | – | > 100 | > 100 | – | > 100 | > 100 | – | – | – | – | – | – | – | – | – | – | –
COc1ccc2c(c1OCC(=O)O)C(=O)C(CCC(=O)O)CC2 (centres undefined) | > 100 | > 100 | – | – | > 100 | > 100 | – | > 100 | – | – | – | – | – | – | – | – | – | – | – | –
C=CCC1(c2ccc(OC)cc2)C=CC(=O)CC1 (centres undefined) | > 100 | > 100 | > 100 | > 100 | > 100 | > 100 | – | > 100 | > 100 | – | – | > 100 | – | – | – | – | – | – | – | –
